{
  "source": "patent US20080279957A1",
  "about": "“Immunomodulating compositions from bile” (Lorus Therapeutics Inc., priority 2000, published 2008)",
  "key": {"[1]": {"system": "human PBMN", "assay": "Direct effect of composition on cytokine production by PBMN (IL-1α, IL-1β, IL-6, IL-8, GM-CSF, IFN-γ, IL-4; ELISA)", "assay_type": "cell-based", "settings": "LPS 1 μg, 24 hrs"}, "[2]": {"system": "human peripheral blood mononuclear cells (PBMN)", "assay": "Survival of PBMN, trypan blue dye exclusion", "assay_type": "cell-based", "settings": "Patient", "text": "At the end of this period, the number of surviving cells was estimated by trypan blue dye exclusion."}, "[3]": {"settings": "second LPS section, LPS 1 μg/well, 24 hrs"}, "[4]": {"settings": "second LPS section, LPS 1 μg/well, 48 hrs"}, "[5]": {"settings": "second LPS section, LPS 10 μg/well, 24 hrs"}, "[6]": {"settings": "second LPS section, LPS 10 μg/well, 48 hrs"}},
  "data": [
    {"substance": "Lipopolysaccharide [LPS]", "values": [
      {"measurement": "GM-CSF released", "setting": "[1]", "value": "54 ± 20", "unit": "pg/mL"},
      {"measurement": "IFN-γ released", "setting": "[1]", "value": "54 ± 94", "unit": "pg/mL"},
      {"measurement": "IL-1β released", "setting": "[1]", "value": "965 ± 99", "unit": "pg/mL"},
      {"measurement": "IL-4 released", "setting": "[1]", "value": "<3.0", "unit": "pg/mL"},
      {"measurement": "IL-6 released", "setting": "[1]", "value": "2016 ± 41", "unit": "pg/mL"},
      {"measurement": "IL-1α released", "setting": "[1]; eight patient samples", "value": "315 ± 117", "unit": "pg/mL"},
      {"measurement": "% viable", "setting": "[2]; LPS 1 μg/well, 24 hrs", "value": 43, "unit": "%"},
      {"measurement": "No. of Live PBMN per Well by Trypan Blue", "setting": "[2]; LPS 1 μg/well, 24 hrs", "value": "0.30 ×10^6"},
      {"measurement": "% viable", "setting": "[2]; LPS 1 μg/well, 48 hrs", "value": 40, "unit": "%"},
      {"measurement": "No. of Live PBMN per Well by Trypan Blue", "setting": "[2]; LPS 1 μg/well, 48 hrs", "value": "0.28 ×10^6"},
      {"measurement": "% viable", "setting": "[2]; LPS 10 μg/well, 24 hrs", "value": 36, "unit": "%"},
      {"measurement": "No. of Live PBMN per Well by Trypan Blue", "setting": "[2]; LPS 10 μg/well, 24 hrs", "value": "0.25 ×10^6"},
      {"measurement": "% viable", "setting": "[2]; LPS 10 μg/well, 48 hrs", "value": 18, "unit": "%"},
      {"measurement": "No. of Live PBMN per Well by Trypan Blue", "setting": "[2]; LPS 10 μg/well, 48 hrs", "value": "0.13 ×10^6"},
      {"measurement": "% viable", "setting": "[2]; [3]", "value": 46, "unit": "%"},
      {"measurement": "No. of Live PBMN per Well by Trypan Blue", "setting": "[2]; [3]", "value": "0.60 ×10^6"},
      {"measurement": "% viable", "setting": "[2]; [4]", "value": 41, "unit": "%"},
      {"measurement": "No. of Live PBMN per Well by Trypan Blue", "setting": "[2]; [4]", "value": "0.53 ×10^6"},
      {"measurement": "% viable", "setting": "[2]; [5]", "value": 12, "unit": "%"},
      {"measurement": "No. of Live PBMN per Well by Trypan Blue", "setting": "[2]; [5]", "value": "0.15 ×10^6"},
      {"measurement": "% viable", "setting": "[2]; [6]", "value": 12, "unit": "%"},
      {"measurement": "No. of Live PBMN per Well by Trypan Blue", "setting": "[2]; [6]", "value": "0.15 ×10^6"}
    ]}
  ]
}
